Measured values from patent US20230219904A1 (SYNGENTA CROP PROTECTION AG, priority 2020, published 2023).

Key:
Assay type in all cases: in vivo
Details in all cases: evaluated after 13 days
[1] = tested on: Abutilon theophrasti (ABUTH); test: Pre-emergence herbicidal glasshouse test (Table B1)
Procedure, shortened: (§1)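 Damage is rated 13 days after treatment on a 1–5 scale (5 = 80–100%). Application, usually 500 g/h in acetone/water (50:50) with 0.5% Tween 20, is made one day post-sowing for pre-emergence or eight days for post-emergence; glasshouse at 24/16 °C, 14 h light, 65% humidity.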

[2] = tested on: Amaranthus retoflexus (AMARE); test: as above
Procedure, shortened: as §1

Setaria faberi (SETFA) [3] = test: as above
Procedure, shortened: as §1

[4] = tested on: Ipomoea hederacea (IPOHE); test: as above
Procedure, shortened: as §1

[5] = tested on: Echinochloa crus-galh (ECHCG); test: as above
Procedure, shortened: as §1

[6] = tested on: Abutilon theophrasti (ABUTH); test: Post-emergence herbicidal glasshouse test (Table B1)
Procedure, shortened: as §1

[7] = tested on: Amaranthus retoflexus (AMARE); test: as above
Procedure, shortened: as §1

Setaria faberi (SETFA) [8] = test: as above
Procedure, shortened: as §1

[9] = tested on: Ipomoea hederacea (IPOHE); test: as above
Procedure, shortened: as §1

[10] = tested on: Echinochloa crus-galh (ECHCG); test: as above
Procedure, shortened: as §1

| Structure (SMILES) | PRE Application ABUTH, percentage damage on five-point scale ([1]; applied at 125 g/ha) | PRE Application AMARE, percentage damage on five-point scale ([2]; applied at 125 g/ha) | PRE Application SETFA, percentage damage on five-point scale (Setaria faberi (SETFA) [3]; applied at 125 g/ha) | PRE Application IPOHE, percentage damage on five-point scale ([4]; applied at 125 g/ha) | PRE Application ECHCG, percentage damage on five-point scale ([5]; applied at 125 g/ha) | POST Application ABUTH, percentage damage on five-point scale ([6]; applied at 125 g/ha) | POST Application AMARE, percentage damage on five-point scale ([7]; applied at 125 g/ha) | POST Application SETFA, percentage damage on five-point scale (Setaria faberi (SETFA) [8]; applied at 125 g/ha) | POST Application IPOHE, percentage damage on five-point scale ([9]; applied at 125 g/ha) | POST Application ECHCG, percentage damage on five-point scale ([10]; applied at 125 g/ha) | PRE Application ABUTH, percentage damage on five-point scale ([1]; applied at 500 g/h) | PRE Application AMARE, percentage damage on five-point scale ([2]; applied at 500 g/h) | PRE Application SETFA, percentage damage on five-point scale (Setaria faberi (SETFA) [3]; applied at 500 g/h) | PRE Application IPOHE, percentage damage on five-point scale ([4]; applied) | PRE Application ECHCG, percentage damage on five-point scale ([5]; applied at 500 g/h) | POST Application ABUTH, percentage damage on five-point scale ([6]; applied at 500 g/h) | POST Application AMARE, percentage damage on five-point scale ([7]; applied at 500 g/h) | POST Application SETFA, percentage damage on five-point scale (Setaria faberi (SETFA) [8]; applied at 500 g/h) | POST Application IPOHE, percentage damage on five-point scale ([9]; applied at 500 g/h) | POST Application ECHCG, percentage damage on five-point scale ([10]; applied at 500 g/h) |
| --- | --- | --- | --- | --- | --- | --- | --- | --- | --- | --- | --- | --- | --- | --- | --- | --- | --- | --- | --- | --- |
| Cc1c(C(=O)Nc2c(OC(F)F)ccc(C(=O)Nc3nnnn3C)c2Cl)nn(C)c1C [Compound 1.098] | 4 (4=60-79%) | 3 (3=40-59%) | 4 (4=60-79%) | 4 (4=60-79%) | 1 (1=0-19%) | 4 (4=60-79%) | 4 (4=60-79%) | 4 (4=60-79%) | 4 (4=60-79%) | 4 (4=60-79%) | – | – | – | – | – | – | – | – | – | – |
| Cc1cc(C(=O)Nc2c(OC(F)F)ccc(C(=O)Nc3nnnn3C)c2Cl)no1 [Compound 1.044] | 4 (4=60-79%) | 4 (4=60-79%) | 2 (2=20-39%) | 1 (1=0-19%) | 2 (2=20-39%) | 3 (3=40-59%) | 5 (5=80-100%) | 3 (3=40-59%) | 4 (4=60-79%) | 2 (2=20-39%) | – | – | – | – | – | – | – | – | – | – |
| CCC(CC)C(=O)Nc1c(OC(F)(F)F)ccc(C(=O)Nc2nnnn2CC)c1Cl [Compound 1.105] | – | – | – | – | – | – | – | – | – | – | 5 (5=80-100%) | 5 (5=80-100%) | 3 (3=40-59%) | 2 (2=20-39%) | 5 (5=80-100%) | 5 (5=80-100%) | 5 (5=80-100%) | 5 (5=80-100%) | 5 (5=80-100%) | 5 (5=80-100%) |
| COc1ccc(C(=O)Nc2nnnn2C)c(Cl)c1NC(C)=O [Compound 1.030, 3-acetamido-2-chloro-4-methoxy-N-(1-methyltetrazol-5-yl)benzamide] | – | – | – | – | – | – | – | – | – | – | 5 (5=80-100%) | 5 (5=80-100%) | 3 (3=40-59%) | 3 (3=40-59%) | 3 (3=40-59%) | 5 (5=80-100%) | 5 (5=80-100%) | 5 (5=80-100%) | 4 (4=60-79%) | 5 (5=80-100%) |
| CCC(=O)N(CC)c1c(OC(F)F)ccc(C(=O)Nc2nnnn2C)c1Cl [Compound 1.021] | 5 (5=80-100%) | 3 (3=40-59%) | 3 (3=40-59%) | 3 (3=40-59%) | 3 (3=40-59%) | 4 (4=60-79%) | 3 (3=40-59%) | 4 (4=60-79%) | 3 (3=40-59%) | 4 (4=60-79%) | – | – | – | – | – | – | – | – | – | – |
| Cn1nnnc1NC(=O)c1ccc(OC(F)(F)F)c(NC(=O)CC2CC2)c1Cl [Compound 1.034] | – | – | – | – | – | – | – | – | – | – | 5 (5=80-100%) | 5 (5=80-100%) | 5 (5=80-100%) | 4 (4=60-79%) | 5 (5=80-100%) | 5 (5=80-100%) | 5 (5=80-100%) | 5 (5=80-100%) | 5 (5=80-100%) | 5 (5=80-100%) |
| COCC(=O)Nc1c(OC(F)(F)F)ccc(C(=O)Nc2nnnn2C)c1Cl [Compound 1.130] | – | – | – | – | – | – | – | – | – | – | 4 (4=60-79%) | 5 (5=80-100%) | 1 (1=0-19%) | 1 (1=0-19%) | 2 (2=20-39%) | 5 (5=80-100%) | 5 (5=80-100%) | 5 (5=80-100%) | 4 (4=60-79%) | 5 (5=80-100%) |
| CCn1nnnc1NC(=O)c1ccc(OC(F)(F)C(F)F)c(NC(=O)C2CC2)c1Cl [Compound 1.102] | – | – | – | – | – | – | – | – | – | – | 4 (4=60-79%) | 5 (5=80-100%) | 4 (4=60-79%) | 1 (1=0-19%) | 5 (5=80-100%) | 5 (5=80-100%) | 5 (5=80-100%) | 5 (5=80-100%) | 5 (5=80-100%) | 5 (5=80-100%) |
| COc1ccc(C(=O)Nc2c(OC(F)F)ccc(C(=O)Nc3nnnn3C)c2Cl)cc1 [Compound 1.101] | 4 (4=60-79%) | 4 (4=60-79%) | 4 (4=60-79%) | 2 (2=20-39%) | 1 (1=0-19%) | 4 (4=60-79%) | 4 (4=60-79%) | 4 (4=60-79%) | 4 (4=60-79%) | 5 (5=80-100%) | – | – | – | – | – | – | – | – | – | – |
| CCn1nnnc1NC(=O)c1ccc(OC(F)(F)F)c(NC(=O)C(C)C)c1Cl [Compound 1.118] | 4 (4=60-79%) | 4 (4=60-79%) | 4 (4=60-79%) | 2 (2=20-39%) | 5 (5=80-100%) | 4 (4=60-79%) | 4 (4=60-79%) | 4 (4=60-79%) | 4 (4=60-79%) | 4 (4=60-79%) | – | – | – | – | – | – | – | – | – | – |
| CC(C)CC(=O)Nc1c(OC(F)(F)F)ccc(C(=O)Nc2nnnn2C)c1Cl [Compound 1.008] | – | – | – | – | – | – | – | – | – | – | 5 (5=80-100%) | 5 (5=80-100%) | 4 (4=60-79%) | 3 (3=40-59%) | 5 (5=80-100%) | 5 (5=80-100%) | 5 (5=80-100%) | 5 (5=80-100%) | 5 (5=80-100%) | 5 (5=80-100%) |
| CC(=O)Nc1c(OC(F)F)ccc(C(=O)Nc2nnnn2C)c1Cl [Compound 1.090] | 5 (5=80-100%) | 5 (5=80-100%) | 4 (4=60-79%) | 4 (4=60-79%) | 5 (5=80-100%) | 4 (4=60-79%) | 4 (4=60-79%) | 4 (4=60-79%) | 4 (4=60-79%) | 4 (4=60-79%) | – | – | – | – | – | – | – | – | – | – |
| CCCn1nnnc1NC(=O)c1ccc(OC(F)(F)F)c(NC(=O)c2ccccn2)c1Cl [Compound 1.132] | – | – | – | – | – | – | – | – | – | – | 4 (4=60-79%) | 5 (5=80-100%) | 1 (1=0-19%) | 4 (4=60-79%) | 3 (3=40-59%) | 5 (5=80-100%) | 5 (5=80-100%) | 5 (5=80-100%) | 5 (5=80-100%) | 5 (5=80-100%) |
